According to US20200361895A1, “NOVEL SULFONAMIDE CARBOXAMIDE COMPOUNDS” (Inflazome Limited, priority 2017, published 2020):
Where a name gives a salt, the structure may show the parent alone.

How the values were obtained:
[1] = molecular target: T1, NLRP3 (Homo sapiens, UniProt Q96P20); assay: THP-1 cells pyroptosis assay (LPS + nigericin, resazurin readout; THP IC50); assay type: cell-based; design: Seed THP-1 cells (25,000 cells/well) containing 1.0 μg/ml LPS in 40 μl of RPMI medium; host or cells: THP-1 cells
Summary of the method: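 Human THP-1 cells, 25,000/well in serum-free RPMI with 1 μg/ml LPS, treated 3 hrs at 37° C with compound (8-point half-log, 10 μM top, 0.1% DMSO), then 5 μM nigericin 1 hr. Viability by 100 μM resazurin fluorescence after 1-2 hrs; IC50 by 4-parameter fit.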

[2] = molecular target: T1, NLRP3; assay: Human whole blood IL1β release assay (LPS + nigericin, AlphaLisa IL-1β; HWB IC50); assay type: cell-based; design: Human whole blood in Li-heparin tubes was obtained from healthy donors from a volunteer donor panel; from tissue; host or cells: human whole blood from healthy donors; conditions: IL-1β release
Description: For systemic delivery, the ability to inhibit NLRP3 when the compounds are present within the bloodstream is of great importance. For this reason, the NLRP3 inhibitory activity of a number of compounds in human whole blood was investigated in accordance with the following protocol.
Human whole blood in Li-heparin tubes was obtained from healthy donors from a volunteer donor panel. • 1. Plate out 80 μl of whole blood containing 1 μg/ml of LPS in 96-well, clear bottom cell culture plate (Corning #3585) • 2. Add 10 μl compound (8 points half-log dilution with 10 μM top dose) or vehicle (DMSO 0.1% FAC) to the appropriate wells • 3. Incubate for 3 hrs at 37° C., 5% CO2 • 4. Add 10 μl nigericin (Sigma #N7143) (10 μM FAC) to all wells • 5. Incubate for 1 hr at 37° C., 5% CO2 • 6. At the end of the incubation period, spin plates at 300×g for 5 mins to pellet cells and remove 20 μl of supernatant and add to 96-well v-bottom plates for IL-1β analysis (note: these plates containing the supernatants can be stored at −80° C. to be analysed at a later date) • 7. IL-1β was measured according to the manufacturer protocol (Perkin Elmer-AlphaLisa IL-1 Kit AL220F-5000) • 8. IC50 data is fitted to a non-linear regression equation (log inhibitor vs response-variable slope 4-parameters)

T1 sequence (Q96P20 whole entry): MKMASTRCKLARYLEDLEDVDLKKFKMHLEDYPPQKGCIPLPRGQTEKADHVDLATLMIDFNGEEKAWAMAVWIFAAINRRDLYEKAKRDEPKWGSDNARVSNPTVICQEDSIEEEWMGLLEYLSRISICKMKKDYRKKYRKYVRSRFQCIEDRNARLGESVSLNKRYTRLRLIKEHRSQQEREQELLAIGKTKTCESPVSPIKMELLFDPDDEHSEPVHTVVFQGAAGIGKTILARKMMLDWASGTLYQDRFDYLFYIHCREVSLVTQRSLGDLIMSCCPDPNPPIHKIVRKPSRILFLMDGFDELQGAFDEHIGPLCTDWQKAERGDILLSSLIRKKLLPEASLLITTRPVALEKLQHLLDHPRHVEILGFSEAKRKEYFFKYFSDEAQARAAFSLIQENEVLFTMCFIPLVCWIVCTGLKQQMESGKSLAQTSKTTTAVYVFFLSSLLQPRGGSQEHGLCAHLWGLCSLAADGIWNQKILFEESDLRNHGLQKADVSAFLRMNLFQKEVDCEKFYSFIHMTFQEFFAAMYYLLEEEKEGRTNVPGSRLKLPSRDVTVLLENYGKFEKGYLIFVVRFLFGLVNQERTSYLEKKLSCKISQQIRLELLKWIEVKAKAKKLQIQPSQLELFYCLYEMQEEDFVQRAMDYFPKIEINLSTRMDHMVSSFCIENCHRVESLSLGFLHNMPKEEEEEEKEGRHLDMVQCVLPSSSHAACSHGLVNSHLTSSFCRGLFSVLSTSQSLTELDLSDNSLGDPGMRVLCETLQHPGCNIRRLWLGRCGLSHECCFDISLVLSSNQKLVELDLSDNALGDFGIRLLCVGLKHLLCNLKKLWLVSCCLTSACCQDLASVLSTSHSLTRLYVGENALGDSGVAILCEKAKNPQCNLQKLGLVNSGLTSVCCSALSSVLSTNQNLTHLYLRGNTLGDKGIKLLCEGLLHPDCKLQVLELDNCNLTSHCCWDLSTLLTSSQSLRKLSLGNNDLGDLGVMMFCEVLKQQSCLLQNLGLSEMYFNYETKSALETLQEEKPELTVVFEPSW

Which IC50 [1] does the source give for `CC(C)n1cc(S(=O)(=O)NC(=O)Nc2c(-c3ccnc(C#N)c3)ccc3c2CCC3)ncc1=O` [Example 72, N-((5-(2-Cyanopyridin-4-yl)-2,3-dihydro-1H-inden-4-yl)carbamoyl)-4-isopropyl-5-oxo-4,5-dihydropyrazine-2-sulfonamide, sodium salt] here?
The IC50 was ≤ 500 nM.

And the IC50 [2]?
The IC50 was ≤ 1000 nM.

With `COc1cc(-c2ccc3c(c2NC(=O)NS(=O)(=O)c2cn(C(C)C)c(=O)cn2)CCC3)ccn1` [Example 73, 4-Isopropyl-N-((5-(2-methoxypyridin-4-yl)-2,3-dihydro-1H-inden-4-yl)carbamoyl)-5-oxo-4,5-dihydropyrazine-2-sulfonamide, partial ammonium salt] as the compound, how does the IC50 [1] read?
The IC50 was ≤ 500 nM.

And the IC50 [2]?
The IC50 was ≤ 500 nM.

For `COc1cc(-c2ccc3c(c2NC(=O)NS(=O)(=O)C2CN(C(C)C)C2)CCC3)ccn1` [Example 76, 1-Isopropyl-N-((5-(2-methoxypyridin-4-yl)-2,3-dihydro-1H-inden-4-yl)carbamoyl)azetidine-3-sulfonamide], which IC50 [1] is on record?
The IC50 was ≤ 500 nM.

What about the IC50 [2] of the same compound?
The IC50 was ≤ 500 nM.

Which IC50 [1] does the source give for `CC(C)N1CC(S(=O)(=O)NC(=O)Nc2c(-c3ccncc3)cc(F)c3c2CCC3)C1` [Example 77, N-((7-Fluoro-5-(pyridin-4-yl)-2,3-dihydro-1H-inden-4-yl)carbamoyl)-1-isopropylazetidine-3-sulfonamide] here?
The IC50 was ≤ 500 nM.

And the IC50 [2]?
The IC50 was ≤ 1000 nM.

How did the IC50 [1] turn out when `O=C(Nc1c(-c2ccncc2)cc(F)c2c1CCC2)NS(=O)(=O)C1CN(C2CCC2)C1` [Example 81, 1-Cyclobutyl-N-((7-fluoro-5-(pyridin-4-yl)-2,3-dihydro-1H-inden-4-yl)carbamoyl)azetidine-3-sulfonamide] was run?
The IC50 was ≤ 500 nM.

And the IC50 [2]?
The IC50 was ≤ 1000 nM.

How did the IC50 [1] turn out when `CC(C)n1cc(S(=O)(=O)NC(=O)Nc2c(-c3ccncc3)cc(F)c3c2CCC3)ccc1=O` [Example 91, N-((7-Fluoro-5-(pyridin-4-yl)-2,3-dihydro-1H-inden-4-yl)carbamoyl)-1-isopropyl-6-oxo-1,6-dihydropyridine-3-sulfonamide] was run?
Its IC50 is ≤ 500 nM.

And the IC50 [2]?
Its IC50 is ≤ 1000 nM.

Which results are given for `COc1cc(-c2ccc3c(c2NC(=O)NS(=O)(=O)c2cnc(=O)n(C(C)C)c2)CCC3)ccn1` [Example 95, 1-Isopropyl-N-((5-(2-methoxypyridin-4-yl)-2,3-dihydro-1H-inden-4-yl)carbamoyl)-2-oxo-1,2-dihydropyrimidine-5-sulfonamide, sodium salt]?
IC50 [1]: ≤ 500 nM; IC50 [2]: ≤ 1000 nM

Which IC50 [1] does the source give for `CN(C)c1cncc(S(=O)(=O)NC(=O)Nc2c(-c3ccncc3)cc(F)c3c2CCC3)n1` [Example 105, 6-(Dimethylamino)-N-((7-fluoro-5-(pyridin-4-yl)-2,3-dihydro-1H-inden-4-yl)carbamoyl)pyrazine-2-sulfonamide] here?
The IC50 was ≤ 500 nM.

And the IC50 [2]?
The IC50 was ≤ 1000 nM.

With `CC(C)c1cc(F)cc(-c2ccnc(C#N)c2)c1NC(=O)NS(=O)(=O)c1cnc(N(C)C)cn1` [Example 106, N-((2-(2-Cyanopyridin-4-yl)-4-fluoro-6-isopropylphenyl)carbamoyl)-5-(dimethylamino)pyrazine-2-sulfonamide] as the compound, how does the IC50 [1] read?
Its IC50 is ≤ 500 nM.

And the IC50 [2]?
Its IC50 is ≤ 5000 nM.

With `COc1cc(-c2ccc3c(c2NC(=O)NS(=O)(=O)c2cnc(N(C)C)cn2)CCC3)ccn1` [Example 108, 5-(Dimethylamino)-N-((5-(2-methoxypyridin-4-yl)-2,3-dihydro-1H-inden-4-yl)carbamoyl)pyrazine-2-sulfonamide] as the compound, how does the IC50 [1] read?
The IC50 was ≤ 500 nM.

And the IC50 [2]?
The IC50 was ≤ 5000 nM.

How did the IC50 [1] turn out when `CN(C)c1cnc(S(=O)(=O)NC(=O)Nc2c(-c3ccncc3)cc(F)c3c2CCC3)cn1` [Example 109, 5-(Dimethylamino)-N-((7-fluoro-5-(pyridin-4-yl)-2,3-dihydro-1H-inden-4-yl)carbamoyl)pyrazine-2-sulfonamide] was run?
Its IC50 is ≤ 500 nM.

And the IC50 [2]?
Its IC50 is ≤ 5000 nM.

Which results are given for `Cc1cc(C)nc(S(=O)(=O)NC(=O)Nc2c(-c3ccnc(C#N)c3)cc(F)cc2C(C)C)n1` [Example 114, N-((2-(2-Cyanopyridin-4-yl)-4-fluoro-6-isopropylphenyl)carbamoyl)-4,6-dimethylpyrimidine-2-sulfonamide]?
IC50 [1]: ≤ 500 nM; IC50 [2]: ≤ 5000 nM

Which results are given for `COc1cc(-c2ccc3c(c2NC(=O)NS(=O)(=O)c2nc(C)cc(C)n2)CCC3)ccn1` [Example 116, N-((5-(2-Methoxypyridin-4-yl)-2,3-dihydro-1H-inden-4-yl)carbamoyl)-4,6-dimethylpyrimidine-2-sulfonamide]?
IC50 [1]: ≤ 500 nM; IC50 [2]: ≤ 500 nM

Which results are given for `Cc1cc(C)nc(S(=O)(=O)NC(=O)Nc2c(-c3ccncc3)cc(F)c3c2CCC3)n1` [Example 117, N-((7-Fluoro-5-(pyridin-4-yl)-2,3-dihydro-1H-inden-4-yl)carbamoyl)-4,6-dimethylpyrimidine-2-sulfonamide]?
IC50 [1]: ≤ 500 nM; IC50 [2]: ≤ 1000 nM

For `CC(C)c1cc(F)cc(-c2ccnc(C#N)c2)c1NC(=O)NS(=O)(=O)c1cc(N(C)C)cnn1` [Example 118, N-((2-(2-Cyanopyridin-4-yl)-4-fluoro-6-isopropylphenyl)carbamoyl)-5-(dimethylamino)pyridazine-3-sulfonamide], which IC50 [1] is on record?
The IC50 was ≤ 500 nM.

What about the IC50 [2] of the same compound?
Its IC50 is ≤ 1000 nM.

How did the IC50 [1] turn out when `COc1cc(-c2cc(F)cc(C(C)C)c2NC(=O)NS(=O)(=O)c2cc(N(C)C)cnn2)ccn1` [Example 119, 5-(Dimethylamino)-N-((4-fluoro-2-isopropyl-6-(2-methoxypyridin-4-yl)phenyl)carbamoyl) pyridazine-3-sulfonamide] was run?
Its IC50 is ≤ 500 nM.

What about the IC50 [2] of the same compound?
The IC50 was ≤ 5000 nM.

What does the source list for `COc1cc(-c2ccc3c(c2NC(=O)NS(=O)(=O)c2cc(N(C)C)cnn2)CCC3)ccn1` [Example 120, 5-(Dimethylamino)-N-((5-(2-methoxypyridin-4-yl)-2,3-dihydro-1H-inden-4-yl)carbamoyl) pyridazine-3-sulfonamide]?
IC50 [1]: ≤ 500 nM; IC50 [2]: ≤ 5000 nM

How did the IC50 [1] turn out when `CN(C)c1cnnc(S(=O)(=O)NC(=O)Nc2c(-c3ccncc3)cc(F)c3c2CCC3)c1` [Example 121, 5-(Dimethylamino)-N-((7-fluoro-5-(pyridin-4-yl)-2,3-dihydro-1H-inden-4-yl)carbamoyl) pyridazine-3-sulfonamide] was run?
Its IC50 is ≤ 500 nM.

And the IC50 [2]?
Its IC50 is ≤ 1000 nM.

With `COc1cc(-c2ccc3c(c2NC(=O)NS(=O)(=O)N(C)CC2CCCN2C)CCC3)ccn1` (stereo not shown) [Example 123, 3-(N-Methyl-N-((1-methylpyrrolidin-2-yl)methyl)sulfamoyl)-1-(5-(2-methoxypyridin-4-yl)-2,3-dihydro-1H-inden-4-yl)urea] as the compound, how does the IC50 [1] read?
Its IC50 is ≤ 500 nM.

What about the IC50 [2] of the same compound?
The IC50 was ≤ 500 nM.

Which results are given for `COc1cc(-c2cc(F)c3c(c2NC(=O)NS(=O)(=O)N(C)CC2CCCN2C)CCC3)ccn1` (stereo not shown) [Example 125, 3-(N-Methyl-N-((1-methylpyrrolidin-2-yl)methyl)sulfamoyl)-1-(7-fluoro-5-(2-methoxypyridin-4-yl)-2,3-dihydro-1H-inden-4-yl)urea]?
IC50 [1]: ≤ 500 nM; IC50 [2]: ≤ 500 nM

With `COc1cc(-c2cc(F)c3c(c2NC(=O)NS(=O)(=O)N2C[C@H]4C[C@@H]2CN4C)CCC3)ccn1` [Example 126, (1R,4R)—N-((7-Fluoro-5-(2-methoxypyridin-4-yl)-2,3-dihydro-1H-inden-4-yl)carbamoyl)-5-methyl-2,5-diazabicyclo[2.2.1]heptane-2-sulfonamide] as the compound, how does the IC50 [1] read?
The IC50 was ≤ 500 nM.

And the IC50 [2]?
The IC50 was ≤ 500 nM.

`O=C(Nc1c(-c2ccncc2)cc(F)c2c1CCC2)NS(=O)(=O)CCc1ccccc1` [Example 138, N-((7-Fluoro-5-(pyridin-4-yl)-2,3-dihydro-1H-inden-4-yl)carbamoyl)-2-phenylethanesulfonamide] was tested. Which IC50 [1] did it give?
The IC50 was ≤ 1000 nM.

What about the IC50 [2] of the same compound?
The IC50 was ≤ 10000 nM.

`COc1cc(-c2ccc3c(c2NC(=O)NS(=O)(=O)c2cnn(C4CC4)c2)CCC3)ccn1` [Example 145, 1-Cyclopropyl-N-((5-(2-methoxypyridin-4-yl)-2,3-dihydro-1H-inden-4-yl)carbamoyl)-1H-pyrazole-4-sulfonamide] was tested. Which IC50 [1] did it give?
The IC50 was ≤ 500 nM.

What about the IC50 [2] of the same compound?
The IC50 was ≤ 1000 nM.

How did the IC50 [1] turn out when `CCN(CC)CCCS(=O)(=O)NC(=O)Nc1c(-c2ccncc2)cc(F)c2c1CCC2` [Example 149, 3-(Diethylamino)-N-((7-fluoro-5-(pyridin-4-yl)-2,3-dihydro-1H-inden-4-yl)carbamoyl)propane-1-sulfonamide] was run?
The IC50 was ≤ 500 nM.

And the IC50 [2]?
Its IC50 is ≤ 500 nM.

Which IC50 [1] does the source give for `CCN(CCCS(=O)(=O)NC(=O)Nc1c(-c2ccncc2)cc(F)c2c1CCC2)Cc1ccccc1` [Example 153, 3-(Benzyl(ethyl)amino)-N-((7-fluoro-5-(pyridin-4-yl)-2,3-dihydro-1H-inden-4-yl)carbamoyl)propane-1-sulfonamide] here?
The IC50 was ≤ 500 nM.

What about the IC50 [2] of the same compound?
Its IC50 is ≤ 5000 nM.

Which results are given for `COc1cc(-c2cc(F)cc(C(C)C)c2NC(=O)NS(=O)(=O)CC2CCN(C)C2)ccn1` (stereo not shown) [Example 163, N-((4-Fluoro-2-isopropyl-6-(2-methoxypyridin-4-yl)phenyl)carbamoyl)-1-(1-methylpyrrolidin-3-yl) methanesulfonamide]?
IC50 [1]: ≤ 500 nM; IC50 [2]: ≤ 500 nM
